Measurements from patent US20260070945A1, “MACROCYCLIC IMMUNOMODULATORS” (Bristol-Myers Squibb Company, priority 2022, published 2026).
*1 amine or outer side, *2 acyl side, *3 side chain or, on linkers, in order; H or OH if unused. Where a SMILES comes first, the peptide text is derived from it. Bridges are numbered along the chain shown (N, C = ends). [ ]: non-standard residue; d: D form. The star is where a group is joined. ξ: configuration not given here. Phe(3-CF3) = N[C@@H](Cc1cccc(C(F)(F)F)c1)C(=O)O; Phe(4-COOH) = N[C@@H](Cc1ccc(C(=O)O)cc1)C(=O)O; Bip = N[C@@H](Cc1ccc(-c2ccccc2)cc1)C(=O)O; Phe(3-Me) = Cc1cccc(C[C@H](N)C(=O)O)c1; βAsp = O=C(O)[C@H](CC(=O)[*:2])N[*:1]; Val(3-OH) = CC(C)(O)[C@H](N)C(=O)O; 3Thi = N[C@@H](Cc1ccsc1)C(=O)O; Cha = N[C@@H](CC1CCCCC1)C(=O)O; Thr(3ξ) = CC(O)[C@H](N)C(=O)O; Carboxymethyl = O=C(O)C*; NMeA = CN[C@@H](C)C(=O)O; Orn = NCCC[C@H](N)C(=O)O; Aun = NCCCCCCCCCCC(=O)O; Dab = NCC[C@H](N)C(=O)O; Dap = NC[C@H](N)C(=O)O; AEEA = NCCOCCOCC(=O)O

Target: T1, PD-1/PD-L1 interaction (PE-labeled human PD-L1-Ig binding to Jurkat cell line over-expressing human PD-1) (Homo sapiens, UniProt Q15116)
T1 construct: expressed in transfected cells; host or cells: Jurkat
T1 sequence (Q15116 25-288): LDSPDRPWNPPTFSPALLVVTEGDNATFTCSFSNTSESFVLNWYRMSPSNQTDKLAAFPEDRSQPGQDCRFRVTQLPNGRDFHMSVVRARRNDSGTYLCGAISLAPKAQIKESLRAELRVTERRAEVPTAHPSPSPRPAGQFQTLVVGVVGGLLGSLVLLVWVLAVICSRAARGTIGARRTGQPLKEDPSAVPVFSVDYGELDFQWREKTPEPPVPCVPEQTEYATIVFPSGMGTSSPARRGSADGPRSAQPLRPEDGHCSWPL
Assay: Jurkat-PD-1 Cell Binding High-Content Screening Assay (CBA)
Conditions: Jurkat-hPD-1 cells, PE-labeled PD-L1-Ig 20 nM final; read-out: Jurkat HPD1 PDL1 IC50
Outline: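 Read-out: high-content imaging of cell-bound PE fluorescence, with Hoechst 33342 nuclear counterstain after paraformaldehyde fixation. Before labeled ligand (20 nM final, 1 h) was added, compound sat on the cells for 2 h at 37 °C in DMEM/10% FCS.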

IC50 [nM] | SMILES
879 | CC(C)C[C@@H]1NC(=O)[C@H](Cc2c[nH]c3ccccc23)NC(=O)[C@H](CC(=O)O)NC(=O)[C@H](Cc2ccc(OCC(=O)O)cc2)NC(=O)[C@H](Cc2ccc(OCC(=O)O)cc2)NC(=O)CSC[C@@H](C(=O)N[C@@H](CCN)C(=O)NCCOCCOCC(=O)NCCCCCCCCCCC(=O)O)NC(=O)[C@H](CO)NC(=O)[C@H](C(C)C)NC(=O)[C@H](CC(C)C)NC(=O)[C@H](CCN)NC(=O)[C@@H](CC(C)C)NC(=O)[C@H](C)N(C)C(=O)[C@H](C(C)C)NC(=O)[C@H](Cc2ccc(-c3ccccc3)cc2)NC1=O [Example 2039] ({CH2CO}-Y(Carboxymethyl)Y(Carboxymethyl)DWL[Bip]V[NMeA][dL][Dab]LVSC[Dab][AEEA][Aun]-OH; thioether N-14)
20.5 | CC(=O)NCCCC[C@@H]1NC(=O)[C@H](Cc2ccc(-c3ccccc3)cc2)NC(=O)[C@H](C(C)C)NC(=O)[C@H](Cc2cccc(C)c2)NC(=O)[C@H](CC(=O)O)NC(=O)[C@H](Cc2ccc(C(=O)O)cc2)NC(=O)[C@H](Cc2ccc(OCC(=O)O)cc2)NC(=O)CSC[C@@H](C(=O)NCCOCCOCC(=O)NCCCCCCCCCCC(=O)O)NC(=O)[C@H](C(C)O)NC(=O)[C@H](C(C)C)NC(=O)[C@H](CC2CCCCC2)NC(=O)[C@H](CCN)NC(=O)[C@@H](CC(C)C)NC(=O)[C@H](C)N(C)C1=O (stereo partly drawn) [Example 2283] ({CH2CO}-Y(Carboxymethyl)[Phe(4-COOH)]D[Phe(3-Me)]V[Bip]K(Ac)[NMeA][dL][Dab][Cha]V[Thr(3ξ)]C[AEEA][Aun]-OH; thioether N-14)
9.9 | CC(C)C[C@@H]1NC(=O)[C@H](Cc2c[nH]c3ccccc23)NC(=O)[C@H](CC(=O)O)NC(=O)[C@H](Cc2ccc(C(=O)O)cc2)NC(=O)[C@H](Cc2ccc(OCC(=O)O)cc2)NC(=O)CSC[C@@H](C(=O)N[C@@H](CCN)C(=O)NCCCCCCCCCCC(=O)O)NC(=O)[C@H](CCC(N)=O)NC(=O)[C@H](C(C)C)NC(=O)[C@H](CC2CCCCC2)NC(=O)[C@H](CCN)NC(=O)[C@@H](CC(C)C)NC(=O)[C@H](C)N(C)C(=O)[C@H](C(C)C)NC(=O)[C@H](Cc2ccc(-c3ccccc3)cc2)NC1=O [Example 1337] ({CH2CO}-Y(Carboxymethyl)[Phe(4-COOH)]DWL[Bip]V[NMeA][dL][Dab][Cha]VQC[Dab][Aun]-OH; thioether N-14)
76.2 | Cc1cccc(C[C@@H]2NC(=O)[C@H](CC(=O)O)NC(=O)[C@H](Cc3ccc(C(=O)O)cc3)NC(=O)[C@H](Cc3ccc(OCC(=O)O)cc3)NC(=O)CSC[C@@H](C(=O)NCC(=O)N[C@@H](CCC(=O)O)C(=O)NCCOCCOCC(=O)N[C@@H](CC(=O)NCCOCCOCC(=O)NCCCCCCCCCCC(=O)O)C(=O)O)NC(=O)[C@H](CO)NC(=O)[C@H](C(C)C)NC(=O)[C@H](CC(C)C)NC(=O)[C@H](CC(N)=O)NC(=O)[C@@H](CC(C)C)NC(=O)[C@H](C)N(C)C(=O)[C@H](C(C)C)NC(=O)[C@H](Cc3ccc(-c4ccccc4)cc3)NC(=O)[C@H](CC(C)C)NC2=O)c1 [Example 1021] ({CH2CO}-Y(Carboxymethyl)[Phe(4-COOH)]D[Phe(3-Me)]L[Bip]V[NMeA][dL]NLVSCGE[AEEA][βAsp][AEEA][Aun]-OH; thioether N-14)
28.9 | Cc1cccc(C[C@@H]2NC(=O)[C@H](CC(=O)O)NC(=O)[C@H](Cc3ccc(C(=O)O)cc3)NC(=O)[C@H](Cc3ccc(OCC(=O)O)cc3)NC(=O)CSC[C@@H](C(=O)N[C@@H](CCCN)C(=O)NCCCCCCCCCCC(=O)O)NC(=O)[C@H](CO)NC(=O)[C@H](C(C)C)NC(=O)[C@H](CC3CCCCC3)NC(=O)[C@H](CN)NC(=O)[C@@H](CC(C)C)NC(=O)[C@H](C)N(C)C(=O)[C@H](C(C)C)NC(=O)[C@H](Cc3ccc(-c4ccccc4)cc3)NC(=O)[C@H](CC(C)C)NC2=O)c1 [Example 2189] ({CH2CO}-Y(Carboxymethyl)[Phe(4-COOH)]D[Phe(3-Me)]L[Bip]V[NMeA][dL][Dap][Cha]VSC[Orn][Aun]-OH; thioether N-14)
31 | Cc1cccc(C[C@@H]2NC(=O)[C@H](CC(=O)O)NC(=O)[C@H](Cc3ccc(OCC(=O)O)cc3)NC(=O)[C@H]([C@@H](C)O)NC(=O)CSC[C@@H](C(=O)N[C@@H](CCN)C(=O)NCCOCCOCC(=O)NCCCCCCCCCCC(=O)O)NC(=O)[C@H](CC(N)=O)NC(=O)[C@H](C(C)C)NC(=O)[C@H](CC3CCCCC3)NC(=O)[C@H](CCC(=O)O)NC(=O)[C@@H](CC(C)C)NC(=O)[C@H](C)N(C)C(=O)[C@H](Cc3ccc(OCC(=O)O)cc3)NC(=O)[C@H](Cc3ccc(-c4ccccc4)cc3)NC(=O)[C@H](Cc3ccc(OCC(=O)O)cc3)NC2=O)c1 [Example 1377] ({CH2CO}-TY(Carboxymethyl)D[Phe(3-Me)]Y(Carboxymethyl)[Bip]Y(Carboxymethyl)[NMeA][dL]E[Cha]VNC[Dab][AEEA][Aun]-OH; thioether N-14)
9.9 | Cc1cccc(C[C@@H]2NC(=O)[C@H](CC(=O)O)NC(=O)[C@H](Cc3ccc(OCC(=O)O)cc3)NC(=O)[C@H](CN)NC(=O)CSC[C@@H](C(=O)N[C@@H](CCN)C(=O)NCCCCCCCCCCC(=O)O)NC(=O)[C@H](CCCN)NC(=O)[C@H](C(C)C)NC(=O)[C@H](CC3CCCCC3)NC(=O)[C@H](CCN)NC(=O)[C@@H](CC(C)C)NC(=O)[C@H](C)N(C)C(=O)[C@H](Cc3ccc(O)cc3)NC(=O)[C@H](Cc3ccc(-c4ccccc4)cc3)NC(=O)[C@H](C(C)C)NC2=O)c1 [Example 1315] ({CH2CO}-[Dap]Y(Carboxymethyl)D[Phe(3-Me)]V[Bip]Y[NMeA][dL][Dab][Cha]V[Orn]C[Dab][Aun]-OH; thioether N-14)

Same assay, conditions: PE-labeled PD-L1-Ig 20 nM final, Jurkat-hPD-1 cells; read-out: Jurkat HPD1 PDL1 IC50

IC50 [nM] | SMILES
11.5 | CC(C)C[C@H]1NC(=O)[C@H](C)N(C)C(=O)[C@H](Cc2ccc(C(=O)O)cc2)NC(=O)[C@H](Cc2ccc(-c3ccccc3)cc2)NC(=O)[C@H](Cc2ccc(C(=O)O)cc2)NC(=O)[C@H](Cc2cccc(C(F)(F)F)c2)NC(=O)[C@H](CC(=O)O)NC(=O)[C@H](Cc2ccc(C(=O)O)cc2)NC(=O)[C@H](C(C)O)NC(=O)CSC[C@@H](C(=O)N[C@@H](CCN)C(=O)NCCCCCCCCCCC(=O)O)NC(=O)[C@H](CCC(=O)O)NC(=O)[C@H](C(C)C)NC(=O)[C@H](CC2CCCCC2)NC(=O)[C@H](CCN)NC1=O (stereo partly drawn) [Example 2572] ({CH2CO}-[Thr(3ξ)][Phe(4-COOH)]D[Phe(3-CF3)][Phe(4-COOH)][Bip][Phe(4-COOH)][NMeA][dL][Dab][Cha]VEC[Dab][Aun]-OH; thioether N-14)
10.3 | Cc1cccc(C[C@@H]2NC(=O)[C@H](CC(=O)O)NC(=O)[C@H](Cc3ccc(C(=O)O)cc3)NC(=O)[C@H](Cc3ccsc3)NC(=O)CSC[C@@H](C(=O)N[C@@H](CCN)C(=O)NCCOCCOCC(=O)NCCCCCCCCCCC(=O)O)NC(=O)[C@H](CCC(=O)O)NC(=O)[C@H](C(C)(C)O)NC(=O)[C@H](CC3CCCCC3)NC(=O)[C@H](CCN)NC(=O)[C@@H](CC(C)C)NC(=O)[C@H](C)N(C)C(=O)[C@H](Cc3ccc(C(=O)O)cc3)NC(=O)[C@H](Cc3ccc(-c4ccccc4)cc3)NC(=O)[C@H](Cc3ccc(C(=O)O)cc3)NC2=O)c1 [Example 2506] ({CH2CO}-[3Thi][Phe(4-COOH)]D[Phe(3-Me)][Phe(4-COOH)][Bip][Phe(4-COOH)][NMeA][dL][Dab][Cha][Val(3-OH)]EC[Dab][AEEA][Aun]-OH; thioether N-14)
